Experimental findings from patent publication US4629733A, “Indolinones and pharmaceutical compositions containing same” (Dr. Karl Thomae GmbH, priority 1980, dated 1986) are described below.

The subject of data set [1] is mice. Nature of the data set: Acute toxicity. The data set is classed as in vivo. Particulars: observation time 14 days. The protocol: The acute toxicity of the substances to be tested was determined in groups of 5 mice each each after peroral administration of a dose of 250 mg/kg or 1000 mg/kg (observation time: 14 days).
Data set [2] deals with phosphodiesterase (PDE). Nature of the data set: PDE inhibition. The data set is classed as biochemical. Particulars: 10,000×g supernatant of human blood platelets, 1 μmol/liter 3H-cAMP, pH 7.4, 15 minutes at 37° C. As to the method:
cAMP is hydrolysed to AMP by phosphodiesterase (PDE) from various sources, including blood platelets. This hydrolysis is inhibited by PDE inhibitors according to the concentration.
The phosphodiesterase used is the 10,000×g supernatant of human blood platelets which have been frozen with water and thawed out again. An amount of 0.3 ml of a mixture which contains 0.1 mol/liter of tri-hydroxy-aminomethane (pH 7.4), 3 mmol/liter of magnesium chloride, 1 mmol/liter of AMP, 1 μmol/liter of ^3 H-cAMP (specific activity about 10 MBq/μmol), PDE as well as the substance to be tested, and water for the control is incubated for 15 minutes at 37° C. The incubation is stopped by the addition of 0.5 ml of zinc sulphate (0.266 mol/liter) and 0.5 ml of barium hydroxide (0.226 mol/liter), the precipitate is centrifuged, and the activity remaining in the supernatant of the unreacted ^3 H-cAMP is determined. From a comparison of the substance preparations and the control preparations, the concentration for a 50% inhibiting activity (IC50) of the respective substance was calculated.

Data set [3] has as its system conscious mice. Nature of the data set: Determination of the prolongation of bleeding time. The data set is classed as in vivo. Particulars: Mus musculus, po, 1 h, 10 mg/kg orally, after one hour, versus control group. As to the method: To measure the bleeding time, 10 mg/kg of the test compound is administered orally to conscious mice. After one hour 0.5 mm of the tip of the tail of the mouse is cut off, and the droplets of blood are gently removed with filter paper every 30 seconds. The number of drops of blood give a measure of the bleeding time (5 animals/experiment). The values in the following table represent the prolongation as a percentage as compared to a control group: […]

Molecules are shown by their SMILES.

`CC1(C)C(=O)Nc2ccc(OCCCC[S+]([O-])c3ccccc3)cc21` (stereo not drawn) [A, 3,3-Dimethyl-5-(4-phenylsulfinyl-butoxy)-indolinone-2]: in data set [1] (250 mg/kg peroral), the “Acute toxicity per os (animals died)” value is recorded as 0 out of 5. In data set [2], this compound registered an IC50 of 2500 nM.
As for `CC1(C)C(=O)Nc2ccc(OCCCC[S+]([O-])c3ccc(Cl)c(Cl)c3)cc21` (stereo not drawn) [B, 3,3-Dimethyl-5-[4-(3,4-dichlorophenylsulfinyl)-butoxy]-indolinone-2], in data set [1] (1000 mg/kg peroral), the “Acute toxicity per os (animals died)” value is reported as 0 out of 6. For the same compound, the midpoint of inhibition in data set [2], the IC50, lay at 300 nM. For the same compound, the change in vivo at 10 mg/kg in data set [3] stood at 59%.
In the case of `CC1(C)C(=O)Nc2ccc(OCCCCSc3ccc(C4CCCCC4)cc3)cc21` [C, 3,3-Dimethyl-5-[4-(4-cyclohexylphenylmercapto)-butoxy]-indolinone-2], the “Acute toxicity per os (animals died)” value in data set [1] (1000 mg/kg peroral) is given as 0 out of 6. The compound further had an IC50 in data set [2] of 2500 nM.
`CC1(C)C(=O)Nc2ccc(OCCCC[S+]([O-])c3ccc(-c4ccccc4F)cc3)cc21` (stereo not drawn) [D, 3,3-Dimethyl-5-[4-(2'-fluoro-4-biphenylylsulfinyl)-butoxy]-indolinone-2]: in data set [1] (1000 mg/kg peroral), the “Acute toxicity per os (animals died)” value is 0 out of 6. In data set [2], this compound displayed an IC50 of 27 nM. In data set [3], the change in vivo at 10 mg/kg was greater than 249%.
The corresponding values for `COc1ccc([S+]([O-])CCCCOc2ccc3c(c2)C(C)(C)C(=O)N3)cc1OC` (stereo not drawn) [E, 3,3-Dimethyl-5-[4-(3,4-dimethoxyphenylsulfinyl)-butoxy]-indolinone-2] are 0 out of 6, 540 nM and greater than 198%.
The corresponding values for `COc1cc2ccc(S(=O)(=O)CCCCOc3ccc4c(c3)C(C)(C)C(=O)N4)cc2cc1OC` [F, 3,3-Dimethyl-5-[4-(6,7-dimethoxy-naphthyl-(2)-sulfonyl)butoxy]-indolinone-2] are 0 out of 6, 240 nM and greater than 232%.
The corresponding values for `CC(C)(C)c1cc([S+]([O-])CCCCOc2ccc3c(c2)C(C)(C)C(=O)N3)cc(C(C)(C)C)c1O` (stereo not drawn) [G, 3,3-Dimethyl-5-[4-(3,5-di-tert.butyl-4-hydroxy-phenylsulfinyl)-butoxy]-indolinone-2] are 0 out of 6, 70 nM and 154%.
As to `CC(C)(C)c1cc(S(=O)(=O)CCCCOc2ccc3c(c2)C(C)(C)C(=O)N3)cc(C(C)(C)C)c1O` [H, 3,3-Dimethyl-5-[4-(3,5-di-tert.butyl-4-hydroxy-phenylsulfonyl)-butoxy]-indolinone-2], in data set [1] (1000 mg/kg peroral), the “Acute toxicity per os (animals died)” value is listed as 0 out of 6. Moreover, in data set [2], it took 59 nM to reach half-maximal inhibition (IC50). In addition, in data set [3], the change in vivo at 10 mg/kg turned out to be 149%.
Turning to `COc1ccc([S+]([O-])CCCCOc2ccc3c(c2)C(C)(C)C(=O)N3)cc1` (stereo not drawn) [I, 3,3-Dimethyl-5-[4-(4-methoxyphenyl-sulfinyl)-butoxy]-indolinone-2], the “Acute toxicity per os (animals died)” value in data set [1] (1000 mg/kg peroral) is given as 0 out of 6. The IC50 in data set [2] was found to be 500 nM. This compound also registered a change in vivo at 10 mg/kg in data set [3] greater than 214%.
Consider `CC(C)(C)c1ccc([S+]([O-])CCCCOc2ccc3c(c2)C(C)(C)C(=O)N3)cc1` (stereo not drawn) [K, 3,3-Dimethyl-5-[4-(4-tert.butyl-phenyl-sulfinyl)-butoxy]-indolinone-2], for which, in data set [1] (1000 mg/kg peroral), the “Acute toxicity per os (animals died)” value is recorded as 0 out of 6. In data set [2], this compound yielded an IC50 of 270 nM. Besides, in data set [3], the change in vivo at 10 mg/kg is greater than 285%.
The corresponding values for `COc1cc2ccc([S+]([O-])CCCCOc3ccc4c(c3)C(C)(C)C(=O)N4)cc2cc1OC` (stereo not drawn) [L, 3,3-Dimethyl-5-[4-(6,7-dimethoxy-naphthyl-(2)-sulfinyl)butoxy]-indolinone-2] are 0 out of 6, 240 nM and 102%.
For the compound `CC1(C)C(=O)Nc2ccc(OCCCCSc3cc(Cl)c(O)c(Cl)c3)cc21` [M, 3,3-Dimethyl-5-[4-(3,5-dichloro-4-hydroxy-phenyl-mercapto)-butoxy]-indolinone-2], the “Acute toxicity per os (animals died)” value in data set [1] (1000 mg/kg peroral) is recorded as 0 out of 6. In addition, the change in vivo at 10 mg/kg in data set [3] worked out at 140%.
As to `CC1(C)C(=O)Nc2ccc(OCCCC[S+]([O-])c3cc(Br)c(N)c(Br)c3)cc21` (stereo not drawn) [N, 3,3-Dimethyl-5-[4-(3,5-dibromo-4-amino-phenyl-sulfinyl)butoxy]-indolinone-2], in data set [1] (1000 mg/kg peroral), the “Acute toxicity per os (animals died)” value was 0 out of 6. In data set [2], this compound came in with an IC50 of 110 nM. This compound showed a change in vivo at 10 mg/kg in data set [3] greater than 254%.
The corresponding values for `CC1(C)C(=O)Nc2ccc(OCCCC[S+]([O-])c3ccc4ccccc4c3)cc21` (stereo not drawn) [O, 3,3-Dimethyl-5-[4-(naphthyl-(2)-sulfinyl)-butoxy]-indolinone-2] are 0 out of 6, 110 nM and 127%.
The corresponding values for `CC1(C)C(=O)Nc2ccc(OCCCC[S+]([O-])c3ccc(Cl)cc3)cc21` (stereo not drawn) [P, 3,3-Dimethyl-5-[4-(4-chlorophenylsulfinyl)-butoxy]-indolinone-2] are 0 out of 6, 360 nM and 114%.
The corresponding values for `CC1(C)C(=O)Nc2ccc(OCCCCC[S+]([O-])c3ccc(C4CCCCC4)cc3)cc21` (stereo not drawn) [Q, 3,3-Dimethyl-5-[5-(4-cyclohexyl-phenyl-sulfinyl)-pentoxy]-indolinone-2] are 0 out of 6, 380 nM and greater than 174%.
Turning to `CC(C)(C)c1ccc(S(=O)(=O)CCCCOc2ccc3c(c2)C(C)(C)C(=O)N3)cc1` [R, 3,3-Dimethyl-5-[4-(4-tert.butyl-phenyl-sulfonyl)-butoxy]-indolinone-2], the “Acute toxicity per os (animals died)” value in data set [1] (1000 mg/kg peroral) is 0 out of 6. For the same compound, it took 240 nM to reach half-maximal inhibition in data set [2] (IC50). The change in vivo at 10 mg/kg in data set [3] is greater than 242%.
As to `CC1(C)C(=O)Nc2ccc(OCCCC[S+]([O-])c3ccc(C4CCCCC4)cc3)cc21` (stereo not drawn) [S, 3,3-Dimethyl-5-[4-(4-cyclohexyl-phenyl-sulfinyl)-butoxy]-indolinone-2], the “Acute toxicity per os (animals died)” value in data set [1] (1000 mg/kg peroral) is 0 out of 6. The compound also showed an IC50 in data set [2] of 58 nM. This compound also registered a change in vivo at 10 mg/kg in data set [3] of 104%.
